Experimental data: patent US20240376094A2, “SELECTIVE BCL-XL PROTAC COMPOUNDS AND METHODS OF USE” (Les Laboratoires Servier, priority 2021, published 2024)

Experiments:
Assay type in all cases: cell-based
MOLT-4 cells = assay: MOLT-4 cell viability, CTG assay; details: Homo sapiens, MOLT-4, 48 h
Method in brief: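 Viability read as total ATP luminescence (CTG) after 48 h compound treatment, 11 points at 5-fold spacing in triplicate, cells in RPMI 1640/10% FBS. IC50 is the concentration halving signal relative to control, four-parameter fit, averaged over at least 2 experiments.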

Bcl-xL = target: T1, Bcl-xL (Homo sapiens, UniProt Q07817); assay: HCT116 Bcl-xL degradation, capillary-based immunoassay (WES); details: HCT116, 24 h, 9-point serial dilution
T1 construct: Measured levels of Bcl-xL protein of HCT116 cells treated with the tested compounds; host or cells: HCT116
Method in brief: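 Bcl-xL protein level by capillary WES immunoassay in HCT116 lysates, as % of untreated after cofilin normalization. Compound exposure was 24 h at 10 and 100 nM and/or a 9-point series, in quadruplicate. Four-parameter fitting gave the DC50.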

[1] = system: EBC-1 lung cancer cell line; assay: EBC-1 cell proliferation, CellTiter-Glo assay; details: Homo sapiens, 120 h; Ebc-1 cell viability, CTG assay, 5 days of treatment; read-out: CTG 5 day Ebc1 GI50
Method in brief: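 CellTiter-Glo read-out after 5-day compound treatment, normalised to untreated cells, with GI50 derived by four-parameter logistic regression. Ten concentrations spanning 0.508 nM–10 μM were added to 1000 EBC-1 cells per well the day after seeding. Assays required at least one cell doubling versus Day 0.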

HiBiT-tagged BCL-xL = target: T2, HiBiT-tagged BCL-xL (Homo sapiens, UniProt Q07817); assay: NCI-H1650 BCL-xL protein levels, Nano-Glo HiBiT Lytic Detection; details: NCI-H1650 expressing HiBiT-tagged BCL-xL, overnight incubation, read-out: Bcl-xl HIBIT NCIH1650 DC50
T2 construct: expressed in transfected cells; host or cells: NCI-H1650 (ATCC No. CRL-5883), engineered HiBiT cell line
Method in brief: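 HiBiT luminescence after cell lysis with LgBiT/furimazine reagent reported BCL-xL levels, expressed relative to untreated wells and fitted with a four-parameter logistic equation. Engineered NCI-H1650 cells were exposed overnight at 37° C to compound at final 0.508 nM-10 μM (10 points, triplicate plates).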

T2 sequence (Q07817 whole entry): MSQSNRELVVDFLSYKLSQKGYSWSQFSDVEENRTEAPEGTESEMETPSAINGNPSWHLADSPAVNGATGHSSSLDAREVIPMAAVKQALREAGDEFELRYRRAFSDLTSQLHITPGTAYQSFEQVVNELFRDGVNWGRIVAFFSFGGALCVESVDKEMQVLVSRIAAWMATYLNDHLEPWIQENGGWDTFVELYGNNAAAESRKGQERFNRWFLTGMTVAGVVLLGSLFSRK
T1 sequence (Q07817 whole entry): as above

Row | SMILES | IC50 (MOLT-4 cells) [nM] | DC50 (Bcl-xL) [nM] | GI50 [1] [nM] | DC50 (HiBiT-tagged BCL-xL) [nM]
1 | Cc1ncsc1-c1ccc([C@H](C)NC(=O)[C@@H]2C[C@@H](O)CN2C(=O)[C@@H](NC(=O)CCOCCOCCOCCOCCN(C)CCOC23CC4(C)CC(C)(CC(Cn5ncc(-c6ccc(N7CCCc8c7nnc(Nc7nc9ccccc9s7)c8C)nc6C(=O)O)c5C)(C4)C2)C3)C(C)(C)C)cc1 [Example 89, 6-[3-(1,3-benzothiazol-2-ylamino)-4-methyl-6,7-dihydro-5H-pyrido[2,3-c]pyridazin-8-yl]-3-[1-[[3-[2-[2-[2-[2-[2-[3-[[(1S)-1-[(2S,4R)-4-hydroxy-2-[[(1S)-1-[4-(4-methylthiazol-5-yl)phenyl]ethyl]carbamoyl]pyrrolidine-1-carbonyl]-2,2-dimethyl-propyl]amino]-3-oxo-propoxy]ethoxy]ethoxy]ethoxy]ethyl-methyl-amino]ethoxy]-5,7-dimethyl-1-adamantyl]methyl]-5-methyl-pyrazol-4-yl]pyridine-2-carboxylic acid] | 57.6 | > 316 | 435 | 13
2 | Cc1ncsc1-c1ccc(CNC(=O)[C@@H]2C[C@@H](O)CN2C(=O)[C@@H](NC(=O)C2(F)CC2)C(C)(C)SCCCCCCCCCCN(C)CCOC23CC4(C)CC(C)(CC(Cn5ncc(-c6ccc(N7CCCc8c7nnc(Nc7nc9ccccc9s7)c8C)nc6C(=O)O)c5C)(C4)C2)C3)cc1 [Example 94, 6-[3-(1,3-benzothiazol-2-ylamino)-4-methyl-6,7-dihydro-5H-pyrido[2,3-c]pyridazin-8-yl]-3-[1-[[3-[2-[10-[(2R)-2-[(1-fluorocyclopropanecarbonyl)amino]-3-[(2S,4R)-4-hydroxy-2-[[4-(4-methylthiazol-5-yl)phenyl]methylcarbamoyl]pyrrolidin-1-yl]-1,1-dimethyl-3-oxo-propyl]sulfanyldecyl-methyl-amino]ethoxy]-5,7-dimethyl-1-adamantyl]methyl]-5-methyl-pyrazol-4-yl]pyridine-2-carboxylic acid] | 14.4 | 1.06 | 112 | > 1670
3 | Cc1cc(N(CCCCN(C)C(=O)CCCCCCCCCOc2cccc3c2C(=O)N(C2CCC(=O)NC2=O)C3=O)c2ccc(-c3cnn(CC45CC6(C)CC(C)(C4)CC(OCCN(C)C)(C6)C5)c3C)c(C(=O)O)n2)nnc1Nc1nc2ccccc2s1 (stereo not drawn) [Example 95, 6-[[6-(1,3-benzothiazol-2-ylamino)-5-methyl-pyridazin-3-yl]-[4-[10-[2-(2,6-dioxo-3-piperidyl)-1,3-dioxo-isoindolin-4-yl]oxydecanoyl-methyl-amino]butyl]amino]-3-[1-[[3-[2-(dimethylamino)ethoxy]-5,7-dimethyl-1-adamantyl]methyl]-5-methyl-pyrazol-4-yl]pyridine-2-carboxylic acid] | 5.77 | 2.85 | 2660 | > 1670
4 | Cc1ncsc1-c1ccc([C@H](C)NC(=O)[C@@H]2C[C@@H](O)CN2C(=O)[C@@H](NC(=O)CCOCCN(C)CCOC23CC4(C)CC(C)(CC(Cn5ncc(-c6ccc(N7CCCc8c7nnc(Nc7nc9ccccc9s7)c8C)nc6C(=O)O)c5C)(C4)C2)C3)C(C)(C)C)cc1 [Example 103, 6-[3-(1,3-benzothiazol-2-ylamino)-4-methyl-6,7-dihydro-5H-pyrido[2,3-c]pyridazin-8-yl]-3-[1-[[3-[2-[2-[3-[[(1S)-1-[(2S,4R)-4-hydroxy-2-[[(1S)-1-[4-(4-methylthiazol-5-yl)phenyl]ethyl]carbamoyl]pyrrolidine-1-carbonyl]-2,2-dimethyl-propyl]amino]-3-oxo-propoxy]ethyl-methyl-amino]ethoxy]-5,7-dimethyl-1-adamantyl]methyl]-5-methyl-pyrazol-4-yl]pyridine-2-carboxylic acid] | 63.4 | 13.6 | 378 | > 1670
5 | Cc1ncsc1-c1ccc([C@H](C)NC(=O)[C@@H]2C[C@@H](O)CN2C(=O)[C@@H](NC(=O)CCOCCCCCCN(C)CCOC23CC4(C)CC(C)(CC(Cn5ncc(-c6ccc(N7CCCc8c7nnc(Nc7nc9ccccc9s7)c8C)nc6C(=O)O)c5C)(C4)C2)C3)C(C)(C)C)cc1 [Example 108, 6-[3-(1,3-benzothiazol-2-ylamino)-4-methyl-6,7-dihydro-5H-pyrido[2,3-c]pyridazin-8-yl]-3-[1-[[3-[2-[6-[3-[[(1S)-1-[(2S,4R)-4-hydroxy-2-[[(1S)-1-[4-(4-methylthiazol-5-yl)phenyl]ethyl]carbamoyl]pyrrolidine-1-carbonyl]-2,2-dimethyl-propyl]amino]-3-oxo-propoxy]hexyl-methyl-amino]ethoxy]-5,7-dimethyl-1-adamantyl]methyl]-5-methyl-pyrazol-4-yl]pyridine-2-carboxylic acid] | 9.7 | > 316 | 81 | > 1670
6 | Cc1ncsc1-c1ccc([C@H](C)NC(=O)[C@@H]2C[C@@H](O)CN2C(=O)[C@@H](NC(=O)COCCCCCCCCCN(C)CCOC23CC4(C)CC(C)(CC(Cn5ncc(-c6ccc(N7CCCc8c7nnc(Nc7nc9ccccc9s7)c8C)nc6C(=O)O)c5C)(C4)C2)C3)C(C)(C)C)cc1 [Example 109, 6-[3-(1,3-benzothiazol-2-ylamino)-4-methyl-6,7-dihydro-5H-pyrido[2,3-c]pyridazin-8-yl]-3-[1-[[3-[2-[9-[2-[[(1S)-1-[(2S,4R)-4-hydroxy-2-[[(1S)-1-[4-(4-methylthiazol-5-yl)phenyl]ethyl]carbamoyl]pyrrolidine-1-carbonyl]-2,2-dimethyl-propyl]amino]-2-oxo-ethoxy]nonyl-methyl-amino]ethoxy]-5,7-dimethyl-1-adamantyl]methyl]-5-methyl-pyrazol-4-yl]pyridine-2-carboxylic acid] | 7.84 | 0.155 | 98 | 1
7 | Cc1ncsc1-c1ccc([C@H](C)NC(=O)[C@@H]2C[C@@H](O)CN2C(=O)[C@@H](NC(=O)COCCCCCCCCCCCN(C)CCOC23CC4(C)CC(C)(CC(Cn5ncc(-c6ccc(N7CCCc8c7nnc(Nc7nc9ccccc9s7)c8C)nc6C(=O)O)c5C)(C4)C2)C3)C(C)(C)C)cc1 [Example 110, 6-[3-(1,3-benzothiazol-2-ylamino)-4-methyl-6,7-dihydro-5H-pyrido[2,3-c]pyridazin-8-yl]-3-[1-[[3-[2-[11-[2-[[(1S)-1-[(2S,4R)-4-hydroxy-2-[[(1S)-1-[4-(4-methylthiazol-5-yl)phenyl]ethyl]carbamoyl]pyrrolidine-1-carbonyl]-2,2-dimethyl-propyl]amino]-2-oxo-ethoxy]undecyl-methyl-amino]ethoxy]-5,7-dimethyl-1-adamantyl]methyl]-5-methyl-pyrazol-4-yl]pyridine-2-carboxylic acid] | 23.9 | 11.4 | 379 | 2
8 | Cc1ncsc1-c1ccc([C@H](C)NC(=O)[C@@H]2C[C@@H](O)CN2C(=O)[C@@H](NC(=O)COCCCCCCCCCCCCCN(C)CCOC23CC4(C)CC(C)(CC(Cn5ncc(-c6ccc(N7CCCc8c7nnc(Nc7nc9ccccc9s7)c8C)nc6C(=O)O)c5C)(C4)C2)C3)C(C)(C)C)cc1 [Example 111, 6-[3-(1,3-benzothiazol-2-ylamino)-4-methyl-6,7-dihydro-5H-pyrido[2,3-c]pyridazin-8-yl]-3-[1-[[3-[2-[13-[2-[[(1S)-1-[(2S,4R)-4-hydroxy-2-[[(1S)-1-[4-(4-methylthiazol-5-yl)phenyl]ethyl]carbamoyl]pyrrolidine-1-carbonyl]-2,2-dimethyl-propyl]amino]-2-oxo-ethoxy]tridecyl-methyl-amino]ethoxy]-5,7-dimethyl-1-adamantyl]methyl]-5-methyl-pyrazol-4-yl]pyridine-2-carboxylic acid] | 2.62 | 0.4 | 41 | 0.5
9 | Cc1cc(N(CCCCN(C)C(=O)CCCCCCCCCCC(=O)N[C@H](C(=O)N2C[C@H](O)C[C@H]2C(=O)N[C@@H](C)c2ccc(-c3scnc3C)cc2)C(C)(C)C)c2ccc(-c3cnn(CC45CC6(C)CC(C)(C4)CC(OCCN(C)C)(C6)C5)c3C)c(C(=O)O)n2)nnc1Nc1nc2ccccc2s1 [Example 112, 6-[[6-(1,3-benzothiazol-2-ylamino)-5-methyl-pyridazin-3-yl]-[4-[[12-[[(1S)-1-[(2S,4R)-4-hydroxy-2-[[(1S)-1-[4-(4-methylthiazol-5-yl)phenyl]ethyl]carbamoyl]pyrrolidine-1-carbonyl]-2,2-dimethyl-propyl]amino]-12-oxo-dodecanoyl]-methyl-amino]butyl]amino]-3-[1-[[3-[2-(dimethylamino)ethoxy]-5,7-dimethyl-1-adamantyl]methyl]-5-methyl-pyrazol-4-yl]pyridine-2-carboxylic acid] | 15.7 | 0.495 | 437 | 0.5
